Assay results taken from US20230293526A1, “METHOD FOR TREATING CANCER WITH A REVERSE TRANSCRIPTASE INHIBITOR” (PrimeFour Therapeutics, Inc., priority 2020, published 2023).
pIC50: −log10 of the molar value.

Assays:
Assay in all cases: Cell proliferation CellTiterGlo Ex.2
Format in all cases: cell-based
A2058 = conditions: Homo sapiens; A2058 (Skin), 72 h
Outline: (§1)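 Cells were seeded, incubated overnight at 37 °C, then dosed at 10, 3, 1, 0.3, 0.1, 0.03, 0.01 and 0.003 μM for 72 h (5% or 10% CO2). CellTiterGlo luminescence gave percent viability relative to 0.10% DMSO (high) and 10 μM staurosporine (low) controls.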

A427 = conditions: Homo sapiens, A-427; A427 (Lung), 72 h
Outline: as §1

A498 = conditions: Homo sapiens; A498 (Kidney), 72 h
Outline: as §1

BEN = BEN (Lung), 72 h
Outline: as §1

Caki-2 = conditions: Homo sapiens; Caki-2 (Kidney), 72 h
Outline: as §1

HEC-1-B = conditions: Homo sapiens; HEC-1-B (Endometrium), 72 h
Outline: as §1

HL-60 = conditions: Homo sapiens; HL-60 (Blood), 72 h
Outline: as §1

HT-1080 = conditions: Homo sapiens; HT-1080 (Fibrosarcoma), 72 h
Outline: as §1

Hutu 80 = conditions: Homo sapiens, HuTu80; Hutu 80 (Duodenum), 72 h
Outline: as §1

KMS-12-BM = conditions: Homo sapiens; KMS-12-BM (Blood), 72 h
Outline: as §1

MDA MB 231 = conditions: Homo sapiens; MDA MB 231 (Breast), 72 h
Outline: as §1

MOLM-13 = conditions: Homo sapiens; MOLM-13 (Blood), 72 h
Outline: as §1

NALM-6 = conditions: Homo sapiens; NALM-6 (Blood), 72 h
Outline: as §1

NCI-H1573 = conditions: Homo sapiens; NCI-H1573 (Lung), 72 h
Outline: as §1

NCI-H1703 = conditions: Homo sapiens; NCI-H1703 (Lung), 72 h
Outline: as §1

NCI-H838 = conditions: Homo sapiens; NCI-H838 (Lung), 72 h
Outline: as §1

NCI-N87 = conditions: Homo sapiens; NCI-N87 (Stomach), 72 h
Outline: as §1

OCI-AML3 = conditions: Homo sapiens, OCI-AML-3; OCI-AML3 (Blood), 72 h
Outline: as §1

OCI-AML5 = conditions: Homo sapiens, OCI-AML-5; OCI-AML5 (Blood), 72 h
Outline: as §1

OVCAR-3 = conditions: Homo sapiens; OVCAR-3 (Ovary), 72 h
Outline: as §1

PANC-1 = conditions: Homo sapiens; PANC-1 (Pancreas), 72 h
Outline: as §1

PC-9 = conditions: Homo sapiens; PC-9 (Lung), 72 h
Outline: as §1

PC3 = conditions: Homo sapiens, PC-3; PC3 (Prostate), 72 h
Outline: as §1

SCLC-21H = conditions: Homo sapiens; SCLC-21H (Lung), 72 h
Outline: as §1

SJSA-1 = conditions: Homo sapiens; SJSA-1 (Bone), 72 h
Outline: as §1

SK-BR-3 = conditions: Homo sapiens; SK-BR-3 (Breast), 72 h
Outline: as §1

SK-N-MC = conditions: Homo sapiens; SK-N-MC (Brain), 72 h
Outline: as §1

SK-OV3 = conditions: Homo sapiens, SK-OV-3; SK-OV3 (Ovary), 72 h
Outline: as §1

SNU-16 = conditions: Homo sapiens; SNU-16 (Stomach), 72 h
Outline: as §1

SU-DHL-5 = conditions: Homo sapiens; SU-DHL-5 (Blood), 72 h
Outline: as §1

SW480 = conditions: Homo sapiens; SW480 (Colon), 72 h
Outline: as §1

U118MG = conditions: Homo sapiens, U-118-MG; U118MG (Brain), 72 h
Outline: as §1

U2OS = conditions: Homo sapiens; U2OS (Bone), 72 h
Outline: as §1

Compound: C#C[C@]1(CO)O[C@@H](n2cnc3c(=O)[nH]c(N)nc32)C[C@@H]1O [compound 13]
- pIC50 (A2058): < 5.00
- pIC50 (A427): 6.26
- pIC50 (A498): < 5.00
- pIC50 (BEN): < 5.00
- pIC50 (Caki-2): < 5.00
- pIC50 (HEC-1-B): < 5.00
- pIC50 (HL-60): 5.95
- pIC50 (HT-1080): 5.15
- pIC50 (Hutu 80): 5.84
- pIC50 (KMS-12-BM): 6.02
- pIC50 (MDA MB 231): 5.41
- pIC50 (MOLM-13): 6.34
- pIC50 (NALM-6): 6.60
- pIC50 (NCI-H1573): 5.07
- pIC50 (NCI-H1703): 5.04
- pIC50 (NCI-H838): < 5.00
- pIC50 (NCI-N87): 5.44
- pIC50 (OCI-AML3): 5.15
- pIC50 (OCI-AML5): 5.86
- pIC50 (OVCAR-3): 5.94
- pIC50 (PANC-1): < 5.00
- pIC50 (PC-9): < 5.00
- pIC50 (PC3): 5.40
- pIC50 (SCLC-21H): 5.17
- pIC50 (SJSA-1): 5.19
- pIC50 (SK-BR-3): < 5.00
- pIC50 (SK-N-MC): 5.50
- pIC50 (SK-OV3): 5.40
- pIC50 (SNU-16): 5.71
- pIC50 (SU-DHL-5): 5.43
- pIC50 (SW480): < 5.00
- pIC50 (U118MG): 5.24
- pIC50 (U2OS): 5.66
